ChEMBL document CHEMBL1201862, “PubChem BioAssay data set” (2004)
Calls of active or inactive are those of the source.

How the values were obtained:
[1] = target: Cytochrome P450 2C19 (Homo sapiens, UniProt P33261); test: Cytochrome panel assay with activity outcomes. Panel member name: p450-cyp2c19 Compounds with AC50 equal or less than 10 uM are considered active; type: functional
[2] = target: Cytochrome P450 3A4 (Homo sapiens, UniProt P08684);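 also: CYP3A4 tested as one member of a cytochrome P450 panel screen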
Cytochrome P450 3A4, sequence (P08684 whole entry): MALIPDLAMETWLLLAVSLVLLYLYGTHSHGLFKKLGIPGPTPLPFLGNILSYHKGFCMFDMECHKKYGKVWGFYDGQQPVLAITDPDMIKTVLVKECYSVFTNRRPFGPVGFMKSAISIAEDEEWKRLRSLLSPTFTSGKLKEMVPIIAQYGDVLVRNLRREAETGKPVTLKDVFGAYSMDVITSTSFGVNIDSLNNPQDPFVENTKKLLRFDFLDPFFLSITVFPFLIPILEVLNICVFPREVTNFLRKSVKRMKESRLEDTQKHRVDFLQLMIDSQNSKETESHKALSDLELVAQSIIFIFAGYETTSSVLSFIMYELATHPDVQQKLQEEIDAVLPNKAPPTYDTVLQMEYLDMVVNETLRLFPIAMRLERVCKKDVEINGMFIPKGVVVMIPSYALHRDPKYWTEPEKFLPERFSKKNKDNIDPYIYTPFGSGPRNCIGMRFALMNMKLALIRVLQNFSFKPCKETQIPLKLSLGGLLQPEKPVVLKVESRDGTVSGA

[3] = target: T1, Cytochrome P450 1A2 (Homo sapiens, UniProt P05177)
T1 sequence (P05177 whole entry): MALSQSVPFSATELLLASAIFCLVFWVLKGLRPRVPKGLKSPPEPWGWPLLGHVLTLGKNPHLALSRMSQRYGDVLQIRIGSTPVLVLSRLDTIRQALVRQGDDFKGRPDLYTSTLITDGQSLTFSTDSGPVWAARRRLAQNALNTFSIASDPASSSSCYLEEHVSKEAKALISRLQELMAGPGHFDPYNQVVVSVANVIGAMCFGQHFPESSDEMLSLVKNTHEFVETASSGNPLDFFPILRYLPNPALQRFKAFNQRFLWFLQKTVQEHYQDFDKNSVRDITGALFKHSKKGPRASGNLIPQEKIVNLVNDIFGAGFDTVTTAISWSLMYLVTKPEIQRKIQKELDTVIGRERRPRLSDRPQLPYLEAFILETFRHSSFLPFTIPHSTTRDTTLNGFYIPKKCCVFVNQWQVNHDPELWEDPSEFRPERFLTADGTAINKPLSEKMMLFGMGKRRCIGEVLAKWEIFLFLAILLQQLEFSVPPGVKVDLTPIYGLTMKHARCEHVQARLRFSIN

[4] = alpha-synuclein stem-loop luciferase translation blockers – H4 neuroglioma cells, luminescence, confirmation (AID 1988); type: functional, cell-based
[5] = luciferase reporter signal suppression in cells – H4 neuroglioma cells, luminescence, dose response (AID 1990); type: functional, cell-based
[6] = Luminescence Cell-Based Dose Response HTS to Identify Inhibitors of 5'UTR Stem-Loop Driven Prion Protein mRNA Translation in H4 Neuroglioblastoma Cells. [Related pubchem assays: 1827 (Project Summary), 1813 (Primary HTS)]; type: functional
[7] = viability of uninfected HEp-2 cells – cell-based, HTS, cytotoxicity control for RSV inhibitor project, dose response (AID 2410); type: functional; conditions: human respiratory syncytial virus
[8] = system: Streptococcus sp. 'group A'; test: Streptococcus pyogenes SK(-)GAS viability under kanamycin – luminescence, BacTiterGlo, confirmation, counter-screen for streptokinase expression inhibitor project, dose response (AID 1900); type: functional, organism-based
[9] = system: Streptococcus; test: GAS UMAA2166 growth inhibition – luminescence, BacTiterGlo, counter-screen for streptokinase expression inhibitor project, dose response (AID 1915); type: functional, organism-based;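 also: potency for reduction of bacterial viability or growth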
[10] = target: T2, Streptokinase A (Streptococcus pyogenes serotype M1, UniProt P10520); test: viability-normalized secreted streptokinase activity reduction – plasminogen activation absorbance, OD405, dose response (AID 1914); type: functional, Streptococcus pyogenes M1 GAS;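 also: secreted streptokinase activity via plasminogen activation per viability signal from cell pellet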
T2 sequence (P10520 whole entry): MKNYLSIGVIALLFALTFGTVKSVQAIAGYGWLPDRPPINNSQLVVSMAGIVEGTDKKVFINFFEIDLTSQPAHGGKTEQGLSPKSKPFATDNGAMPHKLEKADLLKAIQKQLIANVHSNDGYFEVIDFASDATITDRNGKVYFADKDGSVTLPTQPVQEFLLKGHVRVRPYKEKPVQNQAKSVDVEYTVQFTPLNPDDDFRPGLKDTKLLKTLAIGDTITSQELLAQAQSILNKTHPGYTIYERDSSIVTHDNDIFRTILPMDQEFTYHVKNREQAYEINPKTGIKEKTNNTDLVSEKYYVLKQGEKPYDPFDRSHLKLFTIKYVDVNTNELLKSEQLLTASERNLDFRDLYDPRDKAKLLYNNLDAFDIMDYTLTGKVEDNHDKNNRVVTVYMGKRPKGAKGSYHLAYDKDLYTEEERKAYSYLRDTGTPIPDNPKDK

[11] = target: Cytochrome P450 2C9 (Homo sapiens, UniProt P11712)
Cytochrome P450 2C9, sequence (P11712 whole entry): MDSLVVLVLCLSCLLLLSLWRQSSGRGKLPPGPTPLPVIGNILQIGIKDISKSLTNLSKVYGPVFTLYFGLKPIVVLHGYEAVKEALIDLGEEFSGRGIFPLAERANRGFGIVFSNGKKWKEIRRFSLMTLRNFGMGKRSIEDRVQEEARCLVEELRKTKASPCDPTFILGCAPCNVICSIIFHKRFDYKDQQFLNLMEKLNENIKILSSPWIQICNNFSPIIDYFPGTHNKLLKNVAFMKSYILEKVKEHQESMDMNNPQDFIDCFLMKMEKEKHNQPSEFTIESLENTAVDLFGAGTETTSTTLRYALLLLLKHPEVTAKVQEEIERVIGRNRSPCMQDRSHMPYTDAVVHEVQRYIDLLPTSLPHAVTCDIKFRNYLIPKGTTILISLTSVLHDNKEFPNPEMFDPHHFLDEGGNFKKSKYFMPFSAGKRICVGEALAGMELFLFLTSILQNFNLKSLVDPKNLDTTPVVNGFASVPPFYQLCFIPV

[12] = system: INS1; test: INS-1E survival protection against cytokine death – cell-based, luminescence, retest, dose response (AID 449756); type: functional; conditions: Rattus norvegicus;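 also: cell death triggered by IL-1 beta plus TNF-alpha plus IFN-gamma mixture; protective hits raise ATP signal compared with cytokine alone wells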
[13] = target: Cytochrome P450 2D6 (Homo sapiens, UniProt P10635);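 also: CYP2D6 member of a cytochrome P450 panel assay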
Cytochrome P450 2D6, sequence (P10635 whole entry): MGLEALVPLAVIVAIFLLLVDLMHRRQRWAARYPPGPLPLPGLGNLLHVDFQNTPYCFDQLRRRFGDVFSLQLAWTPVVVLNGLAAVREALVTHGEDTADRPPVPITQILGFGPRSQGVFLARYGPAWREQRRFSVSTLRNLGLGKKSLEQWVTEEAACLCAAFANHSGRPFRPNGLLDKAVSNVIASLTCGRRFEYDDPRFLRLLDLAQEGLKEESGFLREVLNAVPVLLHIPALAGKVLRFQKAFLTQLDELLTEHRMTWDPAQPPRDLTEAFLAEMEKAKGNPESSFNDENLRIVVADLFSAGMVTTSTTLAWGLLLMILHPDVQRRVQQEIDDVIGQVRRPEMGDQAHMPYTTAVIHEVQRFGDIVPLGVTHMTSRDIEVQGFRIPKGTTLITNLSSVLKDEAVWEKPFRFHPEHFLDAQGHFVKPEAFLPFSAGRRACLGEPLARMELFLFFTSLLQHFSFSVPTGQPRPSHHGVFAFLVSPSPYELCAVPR

[14] = Luminescence Cell-Based Dose Retest to Confirm Inhibitors of Cancer Stem Cells. [Related pubchem assays (depositor defined):AID2717, AID2721]; type: functional; conditions: Homo sapiens

Cytochrome P450 2C19, sequence (P33261 whole entry): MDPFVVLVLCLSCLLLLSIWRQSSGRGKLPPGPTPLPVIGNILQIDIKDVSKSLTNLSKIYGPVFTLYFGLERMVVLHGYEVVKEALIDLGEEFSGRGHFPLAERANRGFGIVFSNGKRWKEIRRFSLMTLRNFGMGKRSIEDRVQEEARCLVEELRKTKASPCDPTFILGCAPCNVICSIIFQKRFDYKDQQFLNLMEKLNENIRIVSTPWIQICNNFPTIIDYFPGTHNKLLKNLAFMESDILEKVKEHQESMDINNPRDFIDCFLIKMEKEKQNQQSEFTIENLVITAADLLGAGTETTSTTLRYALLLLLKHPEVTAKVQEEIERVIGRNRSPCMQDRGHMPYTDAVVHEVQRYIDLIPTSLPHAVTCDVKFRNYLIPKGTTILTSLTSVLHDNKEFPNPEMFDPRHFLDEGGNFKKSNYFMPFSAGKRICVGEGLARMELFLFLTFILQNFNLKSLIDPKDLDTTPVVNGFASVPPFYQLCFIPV

CN(C)c1ncc2nc(-c3cc(F)cc(F)c3)c(=O)n(Cc3cccs3)c2n1
AC50 [1]: inconclusive
AC50 [2]: 5.01 µM (inconclusive)
AC50 [3]: 1.58 µM (inconclusive)

COc1cc(C(=O)O/N=C(\N)Cc2ccc([N+](=O)[O-])cc2)cc(OC)c1OC
EC50 [4]: 8.41 µM (active)
EC50 [5]: 23.3 µM (active)
EC50 [6]: > 120 µM (not active)

COc1cccc(NC(=S)N(CCc2c(C)[nH]c3ccc(C)cc23)Cc2cccs2)c1
CC50 [7]: 13.4 µM (active)

CCOC(=O)C1CCCCN1C(=O)CCc1c(C)nc2ncnn2c1C (stereo not drawn)
EC50 [4]: 14.8 µM (active)
EC50 [5]: 14.7 µM (active)
EC50 [6]: > 120 µM (not active)

CCn1cnc2sc(C(=O)Oc3cccc(C)c3)c(C)c2c1=O
EC50 [8]: 11.8 µM (active)
EC50 [9]: 28.8 µM (active)
EC50 [10]: > 150 µM (not active)

CCCCNCCOCCOc1ccc(C)cc1[N+](=O)[O-]
AC50 ([1]; read-out: AC50): 39.8 µM (inconclusive)
AC50 [11]: 3.16 µM (inconclusive)
AC50 [2]: 14.1 µM (inconclusive)

Nc1nonc1-c1nc2ccccc2n1Cc1ccc(F)cc1Cl
AC50 [11]: 3.55 µM (inconclusive)
AC50 [2]: 14.1 µM (inconclusive)

Cn1c(=O)c2c3c(sc2n2c(SCc4ccccc4)nnc12)CCCC3
CC50 [7]: > 50 µM (active)

O=c1cc(CN2CCN(c3ccc(F)cc3)CC2)c2cc3c(cc2o1)CCCC3
AC50 [2]: 14.1 µM (inconclusive)

Cc1cnc(CNc2nc(-c3ccc(C(=O)N(C)C)cc3)nc3ccccc23)cn1
AC50 [2]: 15.8 µM (inconclusive)
AC50 [3]: 25.1 µM (inconclusive)

Cc1ccccc1Nc1c(-c2ccccn2)nc2c(C)cccn12
EC50 [8]: 19.3 µM (active)
AC50 [12]: 6.81 µM (active)
EC50 [9]: > 150 µM (not active)
EC50 [10]: > 150 µM (not active)

Cc1ccc(CCNC(=O)C2CC(c3ccccc3[N+](=O)[O-])=NO2)cc1 (stereo not drawn)
AC50 [11]: 39.8 µM (inconclusive)
AC50 [2]: 1.12 µM (inconclusive)

CC1(C)C[C@H](O)[C@]2(CO)CC[C@]3(C)C(=CCC4[C@@]5(C)CC[C@H](O)C(C)(C)C5CC[C@]43C)[C@@H]2C1 (stereo partly drawn)
CC50 [7]: 36.2 µM (active)

S=C(CSc1ccccc1)Nc1cccc2ccccc12
AC50 [2]: 3.98 µM (inconclusive)

COC(=O)C/C=C\[C@@H](C)[C@@H](/C=N\O[C@@H]1O[C@H](COC(C)=O)[C@H](OC(C)=O)[C@H](OC(C)=O)[C@H]1OC(C)=O)OC
AC50 [2]: 6.31 µM (inconclusive)
AC50 [13]: 3.98 µM (inconclusive)

CCc1ccc(Nc2n[n+](-c3ccccc3)c(-c3ccc(OC)c(Br)c3)s2)cc1
CC50 [7]: 31.3 µM (active)

CC(=O)NNC(=O)c1csc(Cc2c(Cl)sc3ccc(Cl)cc23)n1
EC50 [4]: 10.3 µM (active)
EC50 [5]: 11.5 µM (active)
EC50 [6]: > 120 µM (not active)

Cc1onc(-c2c(Cl)cccc2Cl)c1C(=O)Nc1nc(C(C)(C)C)cs1
EC50 [4]: 12.2 µM (active)
EC50 [5]: 14.4 µM (active)
EC50 [6]: 16.7 µM (active)
CC50 [7]: 17 µM (active)

Cc1oc(-c2ccccc2Cl)nc1C[S+]([O-])CC(=O)NCCc1ccccc1 (stereo not drawn)
EC50 [4]: > 120 µM (not active)
EC50 [5]: > 120 µM (not active)
EC50 [6]: > 120 µM (not active)

CSc1nc2c(c(=O)n1Cc1ccccc1)SC(C)C2 (stereo not drawn)
EC50 [4]: 84.8 µM (active)
EC50 [5]: 25.7 µM (active)
EC50 [6]: > 120 µM (not active)

Cc1nc(C(=O)NNC(=O)c2c(-c3c(Cl)cccc3Cl)noc2C)cs1
AC50 [12]: 6.91 µM (active)

Cc1ccc(N2C(=O)/C(=C\Nc3cc(C)on3)c3ccccc3C2=O)c(C)c1
EC50 [4]: 12.9 µM (active)
EC50 [5]: > 120 µM (not active)
EC50 [6]: 19.6 µM (active)

COc1ccccc1Nc1ncnc2c1c(C)c(C)n2CCO
CC50 [7]: > 50 µM (active)

CC1=CC(C)(C)N(S(=O)(=O)c2ccc(F)cc2)c2ccc(C)cc21
AC50 [14]: 1.42 µM (active)

CCC1OC23CCCCC2C(C#N)(C(=N)O3)C1(C#N)C#N (stereo not drawn)
AC50 [11]: 14.1 µM (inconclusive)
AC50 [2]: 25.1 µM (inconclusive)

CCN(CC)CC(=O)Nc1sc2c(c1C(=O)c1ccccc1OC)CCC2
EC50 [4]: > 120 µM (not active)
EC50 [5]: > 120 µM (not active)
EC50 [6]: 16.2 µM (active)

O=C(COc1ccc(Cl)cc1)NCc1nnc2c3ccccc3c(-c3ccccc3)nn12
CC50 [7]: 17.9 µM (active)

CN(C)C(=O)c1ccc(-c2nccc(NCc3ccccc3)n2)cc1
AC50 [2]: 20 µM (inconclusive)
AC50 [3]: 15.8 µM (inconclusive)
AC50 [13]: 39.8 µM (inconclusive)

COC(=O)C1=CN(c2ccc(OC)cc2)C=C(C(=O)OC)C1c1ccc(C)c([N+](=O)[O-])c1
CC50 [7]: 48.1 µM (active)

Cc1nc(NCc2ccco2)c2c3c(sc2n1)CCC3
AC50 [11]: 12.6 µM (inconclusive)
AC50 [2]: 15.8 µM (inconclusive)
AC50 [13]: 25.1 µM (inconclusive)

C=CCn1c(NCc2ccc(OC)cc2O)nc2ccccc21
CC50 [7]: 37.8 µM (active)

C[C@@H](CSc1ccc(Br)cc1)CN1CC[C@H](C(C)(C)C)CCC1=O
AC50 [14]: 0.315 µM (active)

Cc1ccc(-c2csc3ncnc(-n4cnc5ccccc54)c23)cc1
AC50 [14]: 2.81 µM (active)

C[C@@]12CC[C@@H]3c4ccc(O)cc4C[C@H](CCCCCCCCC[S+]([O-])CCCC(F)(F)C(F)(F)F)[C@H]3[C@@H]1CC[C@@H]2O (stereo partly drawn)
AC50 [2]: 1 µM (inconclusive)
AC50 [3]: 31.6 µM (inconclusive)

O=S(=O)(c1ccc2c(c1)OCCO2)N1CCC(c2nc(O)c3nnn(Cc4ccc(F)cc4)c3n2)CC1
CC50 [7]: 37.6 µM (active)

CCOC(=O)c1c(C)[nH]c(C(=O)OCC(=O)NC(C)(C)C)c1C
AC50 [12]: 5.11 µM (active)

Cc1ccc(-c2noc(CN3CCN(C(c4ccccc4)c4ccccc4)CC3)n2)cc1
AC50 [2]: 35.5 µM (inconclusive)

COc1ccc(-c2sc3cc(OC)c(OC)cc3c2-c2ccc(O)cc2)cc1
AC50 [14]: 1.58 µM (active)

CC(C)(C)OC(=O)N1CCC(CNC(=O)c2cccs2)CC1
AC50 [12]: > 260 µM (inactive)

CCOc1cccc(/C=N/NC(=O)c2cc(C3CC3)[nH]n2)c1O
AC50 [14]: 5.71 µM (active)
AC50 [12]: 3.73 µM (active)

Cc1cccc(N/N=C(/C=O)C(=O)c2cccs2)c1
AC50 [14]: 2.58 µM (active)

O=C(N/N=C/c1ccccc1)c1c(O)nc2ccccc2c1O
AC50 [12]: 6.26 µM (active)

Cc1nn(-c2ccccc2)c(O)c1/C=N/NC(=O)COc1ccccc1[N+](=O)[O-]
AC50 [12]: 3.4 µM (active)

CCOC(=O)c1ccc(/N=c2\sc(C(=O)OC)cc(=O)n2Cc2ccc3c(c2)OCO3)cc1
CC50 [7]: 20.8 µM (active)

CCNC(=S)N/N=C/c1cn(Cc2ccc(F)cc2)c2ccccc12
AC50 [14]: 24 µM (active)

O=C(Nc1ccccc1)c1cc([N+](=O)[O-])ccc1Cl
AC50 [2]: 25.1 µM (inconclusive)
AC50 [13]: 10 µM (inconclusive)

Cc1ccc(S(=O)(=O)Nc2ccccc2N(C)S(=O)(=O)c2ccc(C)cc2)cc1
AC50 [12]: 10.2 µM (active)

C[C@H](CCC(=O)NCC(=O)O)[C@H]1CC[C@H]2[C@@H]3[C@H](O)C[C@@H]4C[C@H](O)CC[C@]4(C)[C@H]3C[C@H](O)[C@]12C [GLYCOCHOLIC ACID]
EC50 [8]: > 150 µM (not active)
EC50 [9]: > 150 µM (not active)
EC50 [10]: > 150 µM (not active)
